Here are results for 9 compounds from ChEMBL document CHEMBL3639096, “Bivalent inhibitors of IAP proteins and therapeutic methods using the same” (2014).

Experiment [1] concerns the target Baculoviral IAP repeat-containing protein 3 (Homo sapiens, UniProt Q13489). In words: (§1) For cIAP-1 BIR3 and cIAP-2 BIR3 assays, a fluorescently labeled Smac mimetic (Smac-2F) was used as the fluorescent probe. The Kd values of Smac-2F to cIAP-1 BIR3 and cIAP-2 BIR3 were determined by monitoring the total fluorescence polarization of mixtures composed with the fluorescent probe at a fixed concentration and proteins with increasing concentrations up to full saturation. Fluorescence polarization values were measured using the Infinite M-1000 plate reader (Tecan U.S., Research Triangle Park, N.C.) in Microfluor 2 96-well, black, round-bottom plates (Thermo Scientific). To each well, 1 nM of SMAC-2F and increasing concentrations of protein were added to a final volume of 125 ul in the assay buffer (100 mM potassium phosphate, pH 7.5). (In general: In fluorescence polarisation assays a small probe gives low polarisation when free and higher when bound to something large.)

Experiment [2] concerns the target Baculoviral IAP repeat-containing protein 2 (Homo sapiens, UniProt Q13490). Described as §1.
Experiment [3] has as its target E3 ubiquitin-protein ligase XIAP (Homo sapiens, UniProt P98170). The description is as §1.

Structures are written as SMILES.

In the case of `CN[C@@H](C)C(=O)N[C@H]1CN(C(=O)Nc2ccc(CCc3ccc(NC(=O)N4CC[C@H]5CC[C@@H](C(=O)NC(c6ccccc6)c6ccccc6)N5C(=O)[C@@H](NC(=O)[C@H](C)NC)C4)cc3)cc2)CC[C@H]2CCC(C(=O)NC(c3ccccc3)c3ccccc3)N2C1=O` (some centres not stated), the IC50 in experiment [1] is less than 300 nM; in experiment [2], less than 300 nM; in experiment [3] it was less than 30 nM.

In the case of `CN[C@@H](C)C(=O)N[C@H]1CN(C(=O)Nc2ccc(NC(=O)N3CC[C@H]4CC[C@@H](C(=O)N[C@H]5C[C@@H]5c5ccccc5F)N4C(=O)[C@@H](NC(=O)[C@H](C)NC)C3)cc2)CC[C@H]2CC[C@@H](C(=O)N[C@H]3C[C@@H]3c3ccccc3F)N2C1=O`, the IC50 in experiment [1], in experiment [2] and in experiment [3] was less than 1000 nM in each case.

Take `CN[C@@H](C)C(=O)N[C@H]1CN(C(=O)Nc2ccc(NC(=O)N3CC[C@H]4CC[C@@H](C(=O)N[C@H]5CCC[C@H]5c5ccccc5)N4C(=O)[C@@H](NC(=O)[C@H](C)NC)C3)cc2)CC[C@H]2CC[C@@H](C(=O)N[C@H]3CCC[C@H]3c3ccccc3)N2C1=O`: the IC50 in experiment [1], in experiment [2] and in experiment [3] was less than 1000 nM each time.

Take `CN[C@@H](C)C(=O)N[C@H]1CN(C(=O)Nc2ccc(NC(=O)N3CC[C@H]4CC[C@@H](C(=O)N[C@H]5C[C@@H]5c5ccc(C(F)(F)F)c(F)c5)N4C(=O)[C@@H](NC(=O)[C@H](C)NC)C3)cc2)CC[C@H]2CC[C@@H](C(=O)N[C@H]3C[C@@H]3c3ccc(C(F)(F)F)c(F)c3)N2C1=O`: the IC50 in experiment [1], in experiment [2] and in experiment [3] was less than 3000 nM each time.

As to `CN[C@@H](C)C(=O)N[C@H]1CN(C(=O)Nc2ccc(Cc3ccc(NC(=O)N4CC[C@H]5CC[C@@H](C(=O)N[C@H]6C[C@@H]6c6ccccc6)N5C(=O)[C@@H](NC(=O)[C@H](C)NC)C4)cc3)cc2)CC[C@H]2CCC(C(=O)N[C@H]3C[C@@H]3c3ccccc3)N2C1=O` (some centres not stated), the IC50 was less than 3000 nM in experiment [1], less than 3000 nM in experiment [2] and less than 1000 nM in experiment [3].

As for `CN[C@@H](C)C(=O)N[C@H]1CN(C(=O)NCCCCCCNC(=O)N2CC[C@H]3CC[C@@H](C(=O)N[C@H]4CCC[C@H]4c4ccccc4)N3C(=O)[C@@H](NC(=O)[C@H](C)NC)C2)CC[C@H]2CCC(C(=O)N[C@H]3CCC[C@H]3c3ccccc3)N2C1=O` (some centres not stated), the IC50 in experiment [1] is less than 3000 nM; in experiment [2], less than 3000 nM; in experiment [3], less than 1000 nM.

`CN[C@@H](C)C(=O)N[C@H]1CN(C(=O)NCCCCCCNC(=O)N2CC[C@H]3CC[C@@H](C(=O)NC4Cc5ccccc5C4)N3C(=O)[C@@H](NC(=O)[C@H](C)NC)C2)CC[C@H]2CCC(C(=O)NC3Cc4ccccc4C3)N2C1=O` (some centres not stated): the results for the IC50 in experiment [1], in experiment [2] and in experiment [3] were less than 5000 nM, less than 10000 nM and less than 1000 nM, respectively.

For the compound `CN[C@@H](C)C(=O)N[C@H]1CN(C(=O)NCCCCCCNC(=O)N2CC[C@H]3CC[C@@H](C(=O)NCCc4ccccc4)N3C(=O)[C@@H](NC(=O)[C@H](C)NC)C2)CC[C@H]2CCC(C(=O)NCCc3ccccc3)N2C1=O` (some centres not stated), the figures for the IC50 in experiment [1], in experiment [2] and in experiment [3] were less than 5000 nM, less than 1000 nM and less than 1000 nM, respectively.

Consider `CN[C@@H](C)C(=O)N[C@H]1CN(C(=O)NCCCCCCNC(=O)N2CC[C@H]3CC[C@@H](C(=O)N[C@H]4CC[C@@H]4c4ccccc4)N3C(=O)[C@@H](NC(=O)[C@H](C)NC)C2)CC[C@H]2CCC(C(=O)N[C@H]3CC[C@@H]3c3ccccc3)N2C1=O` (some centres not stated), for which the 50% inhibitory concentration (IC50) in experiment [1], in experiment [2] and in experiment [3] was less than 1000 nM throughout.

What is called IC50 is the concentration needed to halve the response being measured.
